# Measurements published in ChEMBL document CHEMBL1649575, “Antimicrobial susceptibility and mutations involved in clarithromycin resistance in Helicobacter pylori isolates from patients in the western central region of Colombia” (2009).
# Activity calls are given as the source filed them. No cut-off for these calls is given here.
# Columns and labels:
# Helicobacter pylori [1] = test: Antimicrobial activity against Helicobacter pylori clinical isolate by Etest; type: functional, organism-based
# Helicobacter pylori [2] = test: Antimicrobial activity against Helicobacter pylori clinical isolate expressing 23S rRNA A2143G mutant by Etest; type: functional, organism-based
# Helicobacter pylori [3] = test: Antimicrobial activity against Helicobacter pylori clinical isolate expressing 23S rRNA A2142G mutant by Etest; type: functional
Compound,Activity (Helicobacter pylori [1]),Activity (Helicobacter pylori [2]),MIC (Helicobacter pylori [3])
CN(C)[C@@H]1C(O)=C(C(N)=O)C(=O)[C@@]2(O)C(O)=C3C(=O)c4c(O)cccc4[C@@](C)(O)[C@H]3C[C@@H]12,Active,,
CC[C@H]1OC(=O)[C@H](C)[C@@H](O[C@H]2C[C@@](C)(OC)[C@@H](O)[C@H](C)O2)[C@H](C)[C@@H](O[C@@H]2O[C@H](C)C[C@H](N(C)C)[C@H]2O)[C@](C)(OC)C[C@@H](C)C(=O)[C@H](C)[C@@H](O)[C@]1(C)O [CLARITHROMYCIN],,inactive,> 256 µg/mL
